The source made the active and inactive calls. The calls are words filed in the database; no cut-off is given here.
Experiments:
A549 = experiment: cells; conditions: Homo sapiens, A549, 48 h
Description: Antiproliferative activity against human A549 cells incubated for 48 hrs by CCK8 assay

Tubulin (Homo sapiens) [1] = target: T1, Tubulin (Homo sapiens) (UniProt P68371+Q9H4B7+P0DPH7+P68366+Q13509+Q71U36+P04350+Q3ZCM7+P07437+P68363+Q9BQE3+Q6PEY2+Q13885+Q9BVA1+Q9BUF5); experiment: Inhibition of tubulin polymerization in human SK-OV-3 assessed as severe cell contraction at 2 nM incubated for 24 hrs by immunofluorescence based analysis
Sus scrofa = species on record: Sus scrofa; experiment: Inhibition of porcine brain tubulin polymerization measured for 60 min by fluorescence based assay; conditions: dose 10.0 µM
SK-OV-3 [2] = experiment: Induction of apoptosis in human SK-OV-3 cells assessed as viable cells at 2.5 nM incubated for 48 hrs by Annexin V-APC-A/7-AAD-A staining based flow cytometry (reference value: 97.17 %); type: functional; conditions: read-out: Activity
Tubulin (Homo sapiens) [3] = target: T1, Tubulin (Homo sapiens); experiment: Inhibition of tubulin polymerization in human SK-OV-3 assessed as decrease in cell viability at 2 nM incubated for 24 hrs by immunofluorescence based analysis
SK-OV-3 [4] = experiment: Inhibition of cell migration in human SK-OV-3 cells assessed as migration rate at 0.625 nM incubated for 24 hrs by wound healing assay relative to control; type: functional; parameters: scale not given: the % may be the effect or the level left
HCC827 = experiment: Antiproliferative activity against human HCC827 cells incubated for 48 hrs by CCK8 assay; type: functional, cell-based; conditions: HCC827, 48 h
SK-OV-3 [5] = experiment: Inhibition of cell migration in human SK-OV-3 cells assessed as migration rate at 1.25 nM incubated for 24 hrs by wound healing assay relative to control; type: functional; parameters: scale not given: the % may be the effect or the level left
SK-OV-3 [6] = experiment: Inhibition of colony formation in human SK-OV-3 cells incubated for 3 days by crystal violet staining based analysis; type: functional, cell-based; conditions: dose 0.625-5 nM, time 3.0 day
Tubulin (Homo sapiens) [7] = target: T1, Tubulin (Homo sapiens); experiment: Inhibition of tubulin polymerization in human SK-OV-3 assessed as condensation of microtubule at cell periphery at 2 nM incubated for 24 hrs by immunofluorescence based analysis
SK-OV-3 [8] = experiment: Induction of apoptosis in human SK-OV-3 cells assessed as early apoptotic cells at 5 nM incubated for 48 hrs by Annexin V-APC-A/7-AAD-A staining based flow cytometry (reference value: 1.12 %); type: functional
Tubulin (Homo sapiens) [9] = target: T1, Tubulin (Homo sapiens); experiment: Inhibition of tubulin polymerization in human SK-OV-3 assessed as disruption of microtubule cytoskeleton at 2 nM incubated for 24 hrs by immunofluorescence based analysis; type: cell-based
SK-OV-3 [10] = experiment: Inhibition of cell migration in human SK-OV-3 cells assessed as relative wound density at 1.25 nM incubated for 24 hrs by wound healing assay (reference value: 74.53 %); type: functional; parameters: scale not given: the % may be the effect or the level left
SK-OV-3 [11] = experiment: Induction of cell cycle arrest at G2/M phase in human SK-OV-3 cells at 1.25 nM incubated for 24 hrs by PI staining based flow cytometry (reference value: 29.73 %); type: functional
[12] = Antiproliferative activity against Paclitaxel-resistant human A2780 cells incubated for 48 hrs by CCK8 assay; type: functional, cell-based; conditions: Paclitaxel-resistant A2780, 48 h
SK-OV-3 [13] = experiment: Induction of apoptosis in human SK-OV-3 cells assessed as early apoptotic cells at 2.5 nM incubated for 48 hrs by Annexin V-APC-A/7-AAD-A staining based flow cytometry (reference value: 1.12 %); type: functional
SK-OV-3 [14] = experiment: Induction of apoptosis in human SK-OV-3 cells assessed as increase in cleaved PARP level incubated for 48 hrs by Western blot analysis; type: functional, cell-based; conditions: dose 0.625-5 nM
SK-OV-3 [15] = experiment: Antiproliferative activity against human SK-OV-3 cells incubated for 48 hrs by CCK8 assay; type: functional, cell-based; conditions: SK-OV-3, 48 h
SK-OV-3 [16] = experiment: Induction of apoptosis in human SK-OV-3 cells assessed as necrotic cells at 1.25 nM incubated for 48 hrs by Annexin V-APC-A/7-AAD-A staining based flow cytometry (reference value: 0.48 %); type: functional
SK-OV-3 [17] = experiment: Induction of cell cycle arrest at G2/M phase in human SK-OV-3 cells at 2.5 nM incubated for 24 hrs by PI staining based flow cytometry (reference value: 29.73 %); type: functional
SK-OV-3 [18] = experiment: Induction of cell cycle arrest at G2/M phase in human SK-OV-3 cells at 5 nM incubated for 24 hrs by PI staining based flow cytometry (reference value: 29.73 %); type: functional
SK-OV-3 [19] = experiment: Induction of apoptosis in human SK-OV-3 cells assessed as early apoptotic cells at 1.25 nM incubated for 48 hrs by Annexin V-APC-A/7-AAD-A staining based flow cytometry (reference value: 1.12 %); type: functional
SK-OV-3 [20] = experiment: Inhibition of cell migration in human SK-OV-3 cells assessed as migration rate at 2.5 nM incubated for 24 hrs by wound healing assay relative to control; type: functional; parameters: scale not given: the % may be the effect or the level left
Tubulin = experiment: Binding affinity to CM5-chip immobilized tubulin (unknown origin) assessed as dissociation constant by SPR analysis; type: protein-complex assay, Homo sapiens
A2780 = experiment: Antiproliferative activity against human A2780 cells incubated for 48 hrs by CCK8 assay; type: functional, cell-based; conditions: A2780, 48 h
SK-OV-3 [21] = experiment: Induction of cell cycle arrest at G2/M phase in human SK-OV-3 cells assessed as increase in Cyclin B level incubated for 24 hrs by Western blot analysis; type: functional, cell-based; conditions: dose 0.625-5 nM
SK-OV-3 [22] = experiment: Induction of apoptosis in human SK-OV-3 cells assessed as increase in cleaved caspase-9 level incubated for 48 hrs by Western blot analysis; type: functional, cell-based; conditions: dose 0.625-5 nM
SK-OV-3 [23] = experiment: Induction of apoptosis in human SK-OV-3 cells assessed as decrease in Bcl-2 level incubated for 48 hrs by Western blot analysis; type: functional, cell-based; conditions: dose 0.625-5 nM
SK-OV-3 [24] = experiment: Inhibition of cell migration in human SK-OV-3 cells assessed as migration rate at 5 nM incubated for 24 hrs by wound healing assay relative to control; type: functional; parameters: scale not given: the % may be the effect or the level left
SK-OV-3 [25] = experiment: Induction of apoptosis in human SK-OV-3 cells assessed as increase in cleaved caspase-3 level incubated for 48 hrs by Western blot analysis; type: functional, cell-based; conditions: dose 0.625-5 nM
SK-OV-3 [26] = experiment: Induction of cell cycle arrest at G2/M phase in human SK-OV-3 cells assessed as decrease in Cdc-25c level incubated for 24 hrs by Western blot analysis; type: functional, cell-based; conditions: dose 0.625-5 nM
SK-OV-3 [27] = experiment: Induction of apoptosis in human SK-OV-3 cells assessed as necrotic cells at 0.625 nM incubated for 48 hrs by Annexin V-APC-A/7-AAD-A staining based flow cytometry (reference value: 0.21 %); type: functional
SK-OV-3 [28] = experiment: Induction of cell cycle arrest at G2/M phase in human SK-OV-3 cells at 1.25 nM incubated for 24 hrs by PI staining based flow cytometry (reference value: 30.13 %); type: functional
SK-OV-3 [29] = experiment: Induction of apoptosis in human SK-OV-3 cells assessed as early apoptotic cells at 0.625 nM incubated for 48 hrs by Annexin V-APC-A/7-AAD-A staining based flow cytometry (reference value: 1.10 %); type: functional
SK-OV-3 [30] = experiment: Induction of apoptosis in human SK-OV-3 cells assessed as late apoptotic cells at 0.625 nM incubated for 48 hrs by Annexin V-APC-A/7-AAD-A staining based flow cytometry (reference value: 1.20 %); type: functional
SK-OV-3 [31] = experiment: Induction of apoptosis in human SK-OV-3 cells assessed as late apoptotic cells at 1.25 nM incubated for 48 hrs by Annexin V-APC-A/7-AAD-A staining based flow cytometry (reference value: 1.20 %); type: functional

| SMILES | IC50 (A549) [nM] | inhibition (Tubulin (Homo sapiens) [1]) | inhibition (Sus scrofa) | inhibition (Tubulin (Homo sapiens) [3]) | Activity (SK-OV-3 [4]) [%] | IC50 (HCC827) [nM] | Activity (SK-OV-3 [5]) [%] | inhibition (SK-OV-3 [6]) | inhibition (Tubulin (Homo sapiens) [7]) | inhibition (Tubulin (Homo sapiens) [9]) | IC50 [12] [nM] | Activity (SK-OV-3 [14]) | IC50 (SK-OV-3 [15]) [nM] | Activity (SK-OV-3 [20]) [%] | IC50 (A2780) [nM] | Activity (SK-OV-3 [21]) | Activity (SK-OV-3 [22]) | Activity (SK-OV-3 [23]) | Activity (SK-OV-3 [24]) [%] | Activity (SK-OV-3 [25]) | also measured |
| --- | --- | --- | --- | --- | --- | --- | --- | --- | --- | --- | --- | --- | --- | --- | --- | --- | --- | --- | --- | --- | --- |
| COc1ccc2c(c1)NC(=O)CN2c1nc(Cl)nc2ccsc12 | 0.84 | Active | Dose-Dependent Effect | Active | 84.28 | 0.34 | 70.73 | Dose-Dependent Effect | Active | Active | 0.75 | Dose-Dependent Effect | 0.31 | 50.2 | 0.38 | Active | Dose-Dependent Effect | Dose-Dependent Effect | 23.64 | Dose-Dependent Effect | viability at 0.0025 µM (SK-OV-3 [2]): 53.9%; Activity (SK-OV-3 [8]): 31.24%; Activity (SK-OV-3 [10]): 33.15%; Activity (SK-OV-3 [11]): 85.13%; Activity (SK-OV-3 [13]): 39.07%; Activity (SK-OV-3 [16]): 2.6%; Activity (SK-OV-3 [17]): 88.2%; Activity (SK-OV-3 [18]): 88.67%; Activity (SK-OV-3 [19]): 38.42%; Kd (Tubulin): 24400 nM; Activity (SK-OV-3 [26]): Active |
| COc1ccc(N(C)c2nc(Cl)nc3ccn(C)c23)cc1 | 1.76 | Active | Dose-Dependent Effect | Active | 102.55 | 1.74 | 94.75 | Dose-Dependent Effect | Active | Active | 2.26 | Dose-Dependent Effect | 1.32 | 81.73 | 1.56 | Active | Dose-Dependent Effect | Dose-Dependent Effect | 56.82 | Dose-Dependent Effect | Activity (SK-OV-3 [27]): 0.33%; Activity (SK-OV-3 [28]): 34.62%; Activity (SK-OV-3 [29]): 1.53%; Activity (SK-OV-3 [30]): 1.93%; Activity (SK-OV-3 [26]): Active; Activity (SK-OV-3 [31]): 2.48% |

From ChEMBL document CHEMBL5608184, “Discovery and mechanistic insights into thieno[3,2-d]pyrimidine and heterocyclic fused pyrimidines inhibitors targeting tubulin for cancer therapy” (Eur J Med Chem, 2024)
